Entries after “also recorded” stand apart in the source; their conditions may differ. Where two headings read alike, the source gives them in different places.

In experiment [1] the test system is splenocytes of HLA-A24 (A*2402) transgenic mice. In kind it is cell-based. Further details: key to A24: average IFN-γ spots forming cells per million splenocytes: — represents no positive ELISpot response.
Experiment [2] deals with splenocytes of HLA-B7 (B*0702) transgenic mice. In kind it is cell-based. More on the design: key to B7: average IFN-γ spots forming cells per million splenocytes: — represents no positive ELISpot response.
Experiment [3] deals with splenocytes of HLA-DR2 (DRB1*1501) transgenic mice. It counts as cell-based. More on the design: key to DR2: average IFN-γ spots forming cells per million splenocytes: — represents no positive ELISpot response.
In experiment [4] the test system is splenocytes of HLA-DR3 (DRB1*0301) transgenic mice. In kind it is cell-based. Further details: key to DR3: average IFN-γ spots forming cells per million splenocytes: — represents no positive ELISpot response.
Experiment [5] concerns splenocytes of HLA-DR4 (DRB1*0401) transgenic mice. It counts as cell-based. More on the design: key: — represents no positive ELISpot response.
The test system of experiment [6] is HLA-A2, -A24, -B7, -DR2, -DR3 and -DR4 transgenic mice. It counts as cell-based. Further details: key to HLA allele this work (HLA restriction by ELISpot): —represents no positive ELISpot response.
Experiment [7] has as its system HLA alleles. Conditions: epitopes extracted from the IEDB, humans infected with influenza A, cited from earlier work.

Regarding RCHRGDTQIQTRRSFEI, the “A24: average IFN-γ spots forming cells per million splenocytes” value in experiment [1] was “—”. In experiment [2], the “B7: average IFN-γ spots forming cells per million splenocytes” value is recorded as “—”. Moreover, in experiment [3], the “DR2: average IFN-γ spots forming cells per million splenocytes” value (shortened to “DR2 … per million splenocytes”) is given as 194 ± 47(0.1) IFN-γ spots forming cells per million splenocytes and the “DR2: lowest concentration of peptide giving positive ELISpot response in peptide titration” value (shortened to “DR2: lowest concentration”) is 194 ± 47(0.1) μg/ml. For the same sequence, in experiment [4], the “DR3: average IFN-γ spots forming cells per million splenocytes” value (“DR3 … per million splenocytes” for short) is “—”. In addition, in experiment [5], the “DR4: average IFN-γ spots forming cells per million splenocytes” value (from here on “DR4 … per million splenocytes”) is “—”. In experiment [6], the “HLA allele this work (HLA restriction by ELISpot)” value (from here on “HLA allele this work”) is listed as “DR2”.
Take HENRMVLASTTAKAMEQ: the “A24: average IFN-γ spots forming cells per million splenocytes” value in experiment [1] is on record as “—”. Further, in experiment [2], the “B7: average IFN-γ spots forming cells per million splenocytes” value is “—”. For the same sequence, the “DR2 … per million splenocytes” value in experiment [3] is “—”. Moreover, the “DR3 … per million splenocytes” value in experiment [4] was “—”. In addition, the “DR4 … per million splenocytes” value in experiment [5] is recorded as 165 ± 1(0.1) IFN-γ spots forming cells per million splenocytes. Further, the “HLA allele this work” value in experiment [6] was “DR4”. The “Published HLA alleles (reported human T cell epitopes)” value (shortened to “Published HLA alleles”) in experiment [7] is given as “A3, A11, DRB1*0701”.
Consider ERRNKYLEEHPSAGKDP, for which the “A24: average IFN-γ spots forming cells per million splenocytes” value in experiment [1] is “—”. For the same sequence, the “B7: average IFN-γ spots forming cells per million splenocytes” value in experiment [2] is reported as “—”. Further, the “DR2 … per million splenocytes” value in experiment [3] was “—”. Further, the “DR3 … per million splenocytes” value in experiment [4] is on record as “—”. Also, the “DR4 … per million splenocytes” value in experiment [5] is reported as 121 ± 1(0.1) IFN-γ spots forming cells per million splenocytes. Moreover, in experiment [6], the “HLA allele this work” value was “DR4”. In addition, the “Published HLA alleles” value in experiment [7] is reported as “DR1, DRB1*0101”.
TNPLIRHENRMVLASTT: in experiment [1], the “A24: average IFN-γ spots forming cells per million splenocytes” value is on record as “—”. In addition, the “B7: average IFN-γ spots forming cells per million splenocytes” value in experiment [2] is “—”. In addition, in experiment [3], the “DR2 … per million splenocytes” value is listed as 56 ± 5(0.1) IFN-γ spots forming cells per million splenocytes and the “DR2: lowest concentration” value is reported as 56 ± 5(0.1) μg/ml. Besides, in experiment [4], the “DR3 … per million splenocytes” value was 120 ± 4(0.1) IFN-γ spots forming cells per million splenocytes and the “DR3: lowest concentration of peptide giving positive ELISpot response in peptide titration” value (“DR3: lowest concentration” for short) is given as 120 ± 4(0.1) μg/ml. Further, the “DR4 … per million splenocytes” value in experiment [5] is recorded as “—”. Moreover, in experiment [6], the “HLA allele this work” value is reported as “DR2, DR3”. Further, the “Published HLA alleles” value in experiment [7] (listed as M1 169-185) is given as “B39, DR2, DRB1*0103,; also recorded: DRB1*1101,; also recorded: DRB1*0701, DRB5*0101”.
SAGQISTQPTFSVQRNL: in experiment [1], the “A24: average IFN-γ spots forming cells per million splenocytes” value is recorded as “—”. For the same sequence, the “B7: average IFN-γ spots forming cells per million splenocytes” value in experiment [2] is listed as “—”. Moreover, in experiment [3], the “DR2 … per million splenocytes” value is given as 207 ± 3(0.1) IFN-γ spots forming cells per million splenocytes and the “DR2: lowest concentration” value is given as 207 ± 3(0.1) μg/ml. Besides, the “DR3 … per million splenocytes” value in experiment [4] is recorded as “—”. In addition, the “DR4 … per million splenocytes” value in experiment [5] is on record as “—”. In addition, in experiment [6], the “HLA allele this work” value is “DR2”. In experiment [7] (listed as NP 402-418), the “Published HLA alleles” value is “DRB1*0101,; also recorded: DRB1*0404”.
As for VLSAFDERRNKYLEEHP, the “HLA allele this work” value in experiment [6] is recorded as “—”. The “Published HLA alleles” value in experiment [7] was “DRB1*0101”.
For the sequence RMVLASTTAK [reference compound], in experiment [7], the “Published HLA alleles” value is “HLA-A3 and -A11”.
Consider GYTMDTVNRTHQYSERG, for which the “A24: average IFN-γ spots forming cells per million splenocytes” value in experiment [1] was “—”. In addition, in experiment [2], the “B7: average IFN-γ spots forming cells per million splenocytes” value was “—”. Besides, the “DR2 … per million splenocytes” value in experiment [3] is reported as “—”. Also, in experiment [4], the “DR3 … per million splenocytes” value is recorded as “—”. The “DR4 … per million splenocytes” value in experiment [5] is on record as 125 ± 11(0.1) IFN-γ spots forming cells per million splenocytes. Further, the “HLA allele this work” value in experiment [6] was “DR4”.
Regarding TQPTFSVQRNLPFDKTT, in experiment [1], the “A24: average IFN-γ spots forming cells per million splenocytes” value is on record as “—”. Moreover, the “B7: average IFN-γ spots forming cells per million splenocytes” value in experiment [2] is on record as “—”. Further, in experiment [3], the “DR2 … per million splenocytes” value is 110 ± 14(1) IFN-γ spots forming cells per million splenocytes and the “DR2: lowest concentration” value was 110 ± 14(1) μg/ml. For the same sequence, in experiment [4], the “DR3 … per million splenocytes” value is 41 ± 2(10) IFN-γ spots forming cells per million splenocytes and the “DR3: lowest concentration” value is listed as 41 ± 2(10) μg/ml. Also, in experiment [5], the “DR4 … per million splenocytes” value is reported as “—”. Besides, the “lowest peptide concentration giving positive IFN-γ ELISpot response (apparent functional avidity)” value in experiment [6] is “solely at the highest peptide concentration”.
RGILEDEQMYQRCCNLF: in experiment [1], the “A24: average IFN-γ spots forming cells per million splenocytes” value is reported as 78 ± 4 IFN-γ spots forming cells per million splenocytes and the “A24: lowest concentration of peptide giving positive ELISpot response in peptide titration” value is on record as “(0.1) μg/ml”. The “B7: average IFN-γ spots forming cells per million splenocytes” value in experiment [2] is “—”. Besides, the “DR2 … per million splenocytes” value in experiment [3] was “—”. Further, in experiment [4], the “DR3 … per million splenocytes” value is reported as 181 ± 10(0.1) IFN-γ spots forming cells per million splenocytes and the “DR3: lowest concentration” value was 181 ± 10(0.1) μg/ml. The “DR4 … per million splenocytes” value in experiment [5] is given as “—”. Also, the “HLA allele this work” value in experiment [6] is “both HLA class I and II alleles”.
Turning to VLYDKEEIRRIWRQANN, the “A24: average IFN-γ spots forming cells per million splenocytes” value in experiment [1] was “—”. Also, the “B7: average IFN-γ spots forming cells per million splenocytes” value in experiment [2] was “—”. The “DR2 … per million splenocytes” value in experiment [3] is “—”. Further, in experiment [4], the “DR3 … per million splenocytes” value is 501 ± 42(0.1) IFN-γ spots forming cells per million splenocytes and the “DR3: lowest concentration” value is given as 501 ± 42(0.1) μg/ml. Besides, the “DR4 … per million splenocytes” value in experiment [5] is “—”. Also, the “HLA allele this work” value in experiment [6] was “DR3”. Also, the “Published HLA alleles” value in experiment [7] is recorded as “DRB1*1101”.
Take GKGYMFESKSMKLRTQI: the “A24: average IFN-γ spots forming cells per million splenocytes” value in experiment [1] was “—”. In addition, in experiment [2], the “B7: average IFN-γ spots forming cells per million splenocytes” value is listed as “—”. In addition, in experiment [3], the “DR2 … per million splenocytes” value is 52 ± 2(1) IFN-γ spots forming cells per million splenocytes and the “DR2: lowest concentration” value is reported as 52 ± 2(1) μg/ml. Also, the “DR3 … per million splenocytes” value in experiment [4] is reported as “—”. The “DR4 … per million splenocytes” value in experiment [5] is reported as “—”. In experiment [6], the “HLA allele this work” value is on record as “DR2”.
As for KWMMAMKYPITADKRIT, in experiment [1], the “A24: average IFN-γ spots forming cells per million splenocytes” value was “—”. Also, in experiment [2], the “B7: average IFN-γ spots forming cells per million splenocytes” value was “—”. The “DR2 … per million splenocytes” value in experiment [3] is “—”. In experiment [4], the “DR3 … per million splenocytes” value is “—”. Besides, the “DR4 … per million splenocytes” value in experiment [5] is 161 ± 18(0.1) IFN-γ spots forming cells per million splenocytes. In experiment [6], the “HLA allele this work” value is listed as “DR4”.
For LEVCFMYSDFHFINEQG, the “A24: average IFN-γ spots forming cells per million splenocytes” value in experiment [1] is given as “—”. In addition, in experiment [2], the “B7: average IFN-γ spots forming cells per million splenocytes” value was “—”. Moreover, in experiment [3], the “DR2 … per million splenocytes” value is given as 64 ± 11(1) IFN-γ spots forming cells per million splenocytes and the “DR2: lowest concentration” value is 64 ± 11(1) μg/ml. For the same sequence, the “DR3 … per million splenocytes” value in experiment [4] is “—”. The “DR4 … per million splenocytes” value in experiment [5] is reported as “—”. The “HLA allele this work” value in experiment [6] is on record as “DR2”.
Regarding NTYQWIIRNWETVKIQW, in experiment [1], the “A24: average IFN-γ spots forming cells per million splenocytes” value is reported as 322 ± 44 IFN-γ spots forming cells per million splenocytes and the “A24: lowest concentration of peptide giving positive ELISpot response in peptide titration” value was “(0.1) μg/ml”. In addition, the “B7: average IFN-γ spots forming cells per million splenocytes” value in experiment [2] is on record as “—”. Besides, in experiment [3], the “DR2 … per million splenocytes” value is given as 96 ± 9(0.1) IFN-γ spots forming cells per million splenocytes and the “DR2: lowest concentration” value is on record as 96 ± 9(0.1) μg/ml. In experiment [4], the “DR3 … per million splenocytes” value is “—”. Also, the “DR4 … per million splenocytes” value in experiment [5] was “—”. In experiment [6], the “HLA allele this work” value was “both HLA class I and II alleles”.
Regarding TQIQTRRSFEIKKLWDQ, the “HLA allele this work” value in experiment [6] is listed as “—”.
With LTIERMVLSAFDERRNK, the “HLA allele this work” value in experiment [6] is reported as “—”.
Consider NQPEWFRNILSIAPIMF, for which the “A24: average IFN-γ spots forming cells per million splenocytes” value in experiment [1] is reported as “—”. In experiment [2], the “B7: average IFN-γ spots forming cells per million splenocytes” value is listed as 60 ± 8 IFN-γ spots forming cells per million splenocytes and the “B7: lowest concentration of peptide giving positive ELISpot response in peptide titration” value is “(10) μg/ml”. Also, the “DR2 … per million splenocytes” value in experiment [3] is listed as “—”. In addition, the “DR3 … per million splenocytes” value in experiment [4] is reported as “—”. Further, the “DR4 … per million splenocytes” value in experiment [5] was “—”. For the same sequence, in experiment [6], the “lowest peptide concentration giving positive IFN-γ ELISpot response (apparent functional avidity)” value was “solely at the highest peptide concentration”.

The values are drawn from patent US20120294879A1, “CONSENSUS SEQUENCE FOR INFLUENZA A VIRUS” (priority 2009, published 2012).
